PMC7754785 (ACS Omega, 2020)
Several values for one entry are separate records, joined by “and”; a condition that tells them apart may be missing. Equal entries are not always repeated.

How the values were obtained:
Mpro from SARS CoV-2 = Mpro from SARS CoV-2 (Severe acute respiratory syndrome coronavirus 2, UniProt P0DTD1); test: Surface plasmon resonance binding to immobilized Mpro; conditions: dissociation constant KD, SPR, Mpro immobilized on CM-5 chip; KD = koff/kon
Mpro [1] = target: T1, Mpro (Severe acute respiratory syndrome coronavirus 2, UniProt P0DTD1); test: Universal protease activity assay with casein as substrate; assay type: biochemical, SARS-CoV-2; conditions: IC50, 10 μM Mpro, 150 μM casein, phosphate buffer pH 7.5, 37 °C
Mpro [2] = target: T1, Mpro; conditions: previous computational studies in our lab; cited from earlier work
Mpro [3] = target: T1, Mpro; conditions: previous computational studies in our lab; cited from earlier work; remark: listed apart in the source

SMILES	Kd (Mpro from SARS CoV-2)	IC50 (Mpro [1]) [µM]	docking score (Mpro [2]) [kcal/mol]	MM-PBSA binding free energy (Mpro [3]) [kcal/mol]
Nc1ccn([C@H]2C[C@H](O)[C@@H](COP(=O)(O)OP(=O)(O)OP(=O)(O)OP(=O)(O)OC[C@H]3O[C@@H](n4ccc(=O)[nH]c4=O)[C@H](O)[C@@H]3O)O2)c(=O)n1 [DB04983, Denufosol]	1400 µM and 1440 µM	1300	–	–
CSCCNc1nc(SCCC(F)(F)F)nc2c1ncn2[C@@H]1O[C@H](COP(=O)(O)OP(=O)(O)C(Cl)(Cl)P(=O)(O)O)[C@@H](O)[C@H]1O [cangrelor]	700 µM and 640 µM	900	-12.28	–
CC(C)c1nc(CN(C)C(=O)N[C@@H](CCN2CCOCC2)C(=O)N[C@H](CC[C@H](Cc2ccccc2)NC(=O)OCc2cncs2)Cc2ccccc2)cs1 [cobicistat]	~2.1 µM and 2.1 µM	~6.7	-12.31	-11.41
